We go through 26 molecules from US8552002B2 (Novartis AG, priority 2004, dated 2013).

Assay type in all cases: biochemical
One assay deals with T1, KDR (Homo sapiens, UniProt P35968).
T1 construct: expressed in transfected cells; host or cells: CHO cells
The experiment in a line: Inhibitory activity against KDR (VEGF-R2), in vitro data of Examples 170 and 207. The following applies: 10 μM; Examples 1 to 169; read-out: KDR inhibition at 10 μM. The method in brief:
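KDR tyrosine phosphorylation detected by luminescence after overnight 4° C capture of 20 μg lysate protein with PY20:AP antibody. Lysates came from cells given compound for 2 h at 37° C, then final 20 ng/ml VEGF for 5 min; compound-free medium as control.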

The target of the next assay is T2, FGFR3 (K650E) (Homo sapiens, UniProt P22607, K650E).
T2 construct: amino acids 411-806 of the cytoplasmic domain of human FGFR-3, N-terminally fused to GST; made in house; host or cells: Sf9 insect cells (baculovirus)
The experiment in a line: Recombinant GST-FGFR-3-K650E tyrosine kinase assay (33P into poly(Glu,Tyr)). As to conditions: 10 μM; Examples 1 to 169; read-out: FGFR3 (K650E) inhibition at 10 μM.

The next assay deals with T3, Tek (Homo sapiens, UniProt Q02763).
T3 construct: amino acids 773-1124 of the cytoplasmic kinase domain of human Tek, N-terminally fused to GST; made in house; host or cells: Sf9 insect cells (baculovirus)
The experiment in a line: Recombinant GST-Tek (Tie-2) tyrosine kinase assay (33P into poly(Glu,Tyr)). The following applies: Examples 1 to 169. The method, boiled down:
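Read-out is filter-bound 33P in poly(Glu,Tyr) 4:1 (10 μg/mL) after 30 min at ambient temperature with 4.0 μM ATP. Enzyme: 150 ng human GST-Tek (aa 773-1124) from insect cells, in Tris pH 7.5 with Mn2+/Mg2+ and vanadate. IC50 fitted linearly over four concentrations, usually 0.01-10 μM.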

Structures can show the parent of a compound that is named as a salt.

T1 sequence (P35968 20-1356): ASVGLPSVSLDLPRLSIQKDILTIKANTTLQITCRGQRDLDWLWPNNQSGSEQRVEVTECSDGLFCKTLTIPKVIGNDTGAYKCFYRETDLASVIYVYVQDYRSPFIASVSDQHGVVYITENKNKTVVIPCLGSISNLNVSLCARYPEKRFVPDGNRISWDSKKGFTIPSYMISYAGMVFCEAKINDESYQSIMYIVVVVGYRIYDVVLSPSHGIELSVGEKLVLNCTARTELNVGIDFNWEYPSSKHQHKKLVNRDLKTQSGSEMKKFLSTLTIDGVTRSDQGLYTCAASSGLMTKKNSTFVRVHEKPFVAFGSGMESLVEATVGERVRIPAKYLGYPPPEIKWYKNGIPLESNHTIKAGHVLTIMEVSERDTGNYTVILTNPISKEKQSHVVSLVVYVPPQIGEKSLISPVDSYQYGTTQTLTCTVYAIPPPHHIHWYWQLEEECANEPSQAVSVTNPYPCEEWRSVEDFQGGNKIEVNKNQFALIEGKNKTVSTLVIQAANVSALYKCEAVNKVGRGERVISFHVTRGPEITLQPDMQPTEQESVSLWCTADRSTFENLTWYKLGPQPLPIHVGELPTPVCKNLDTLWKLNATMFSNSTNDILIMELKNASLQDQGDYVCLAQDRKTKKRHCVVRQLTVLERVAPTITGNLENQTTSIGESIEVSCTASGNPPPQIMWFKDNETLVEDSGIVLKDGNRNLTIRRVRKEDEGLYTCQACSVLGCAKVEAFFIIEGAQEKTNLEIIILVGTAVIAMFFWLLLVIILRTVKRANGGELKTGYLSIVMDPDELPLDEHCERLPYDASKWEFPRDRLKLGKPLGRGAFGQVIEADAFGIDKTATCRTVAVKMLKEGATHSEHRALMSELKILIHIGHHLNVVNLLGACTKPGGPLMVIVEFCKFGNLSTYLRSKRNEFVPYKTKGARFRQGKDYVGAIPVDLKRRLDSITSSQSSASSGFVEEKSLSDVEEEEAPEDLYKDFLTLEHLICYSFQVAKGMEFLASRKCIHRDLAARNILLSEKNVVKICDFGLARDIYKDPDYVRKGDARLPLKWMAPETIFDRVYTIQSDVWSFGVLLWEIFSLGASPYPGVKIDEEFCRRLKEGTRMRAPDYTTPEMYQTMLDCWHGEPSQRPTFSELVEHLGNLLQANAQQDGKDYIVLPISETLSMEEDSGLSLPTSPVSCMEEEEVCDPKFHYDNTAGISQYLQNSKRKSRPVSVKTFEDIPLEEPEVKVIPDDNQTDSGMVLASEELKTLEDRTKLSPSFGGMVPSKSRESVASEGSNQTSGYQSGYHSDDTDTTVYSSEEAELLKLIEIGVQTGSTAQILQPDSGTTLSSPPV
T2 sequence (P22607 411-806 K650E): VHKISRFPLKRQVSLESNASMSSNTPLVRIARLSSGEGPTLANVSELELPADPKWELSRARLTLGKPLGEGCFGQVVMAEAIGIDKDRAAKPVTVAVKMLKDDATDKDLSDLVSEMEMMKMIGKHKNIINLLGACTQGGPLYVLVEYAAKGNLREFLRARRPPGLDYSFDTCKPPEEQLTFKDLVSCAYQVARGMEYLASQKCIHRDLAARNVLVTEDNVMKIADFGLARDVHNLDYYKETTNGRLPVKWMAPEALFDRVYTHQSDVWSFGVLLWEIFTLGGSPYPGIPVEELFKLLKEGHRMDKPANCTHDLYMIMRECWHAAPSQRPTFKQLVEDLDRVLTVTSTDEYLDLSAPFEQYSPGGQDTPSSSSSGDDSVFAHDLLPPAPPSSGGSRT
T3 sequence (Q02763 773-1124): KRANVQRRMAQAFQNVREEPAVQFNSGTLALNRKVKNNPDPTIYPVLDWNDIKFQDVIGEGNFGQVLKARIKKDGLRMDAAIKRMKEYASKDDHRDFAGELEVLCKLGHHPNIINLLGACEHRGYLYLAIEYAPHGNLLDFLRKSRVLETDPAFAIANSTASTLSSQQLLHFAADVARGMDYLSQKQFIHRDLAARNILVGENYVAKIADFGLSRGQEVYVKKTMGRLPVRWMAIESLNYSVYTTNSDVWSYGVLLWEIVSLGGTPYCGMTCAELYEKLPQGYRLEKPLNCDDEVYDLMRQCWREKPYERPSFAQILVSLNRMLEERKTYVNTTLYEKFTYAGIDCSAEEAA

Broadly, the inhibition is the percentage by which the read-out fell short of the control. Regarding `CN(C(=O)Nc1c(Cl)cccc1Cl)c1cc(Nc2ccc(F)cc2F)ncn1` [Example 118, 3-(2,6-Dichloro-phenyl)-1-[6-(2,4-difluoro-phenylamino)-pyrimidin-4-yl]-1-methyl-urea], the inhibition at 10 µM at KDR lay within 67 to 100%; on FGFR3 (K650E), 27 to 100%; at Tek, 12 to 100%.
`CN(C)c1cccc(Nc2cc(NC(=O)Nc3c(Cl)cccc3Cl)ncn2)c1` [Example 119, 1-(2,6-Dichloro-phenyl)-3-[6-(3-dimethylamino-phenylamino)-pyrimidin-4-yl]-urea]: the inhibition at 10 µM on KDR was in the range of 67 to 100%; at FGFR3 (K650E), 27 to 100%; on Tek it was 12 to 100%.
On to `CN(C)c1cccc(Nc2cc(N(C)C(=O)Nc3c(Cl)cccc3Cl)ncn2)c1` [Example 120, 3-(2,6-Dichloro-phenyl)-1-[6-(3-dimethylamino-phenylamino)-pyrimidin-4-yl]-1-methyl-urea], for which the inhibition at 10 µM at KDR lay within 67 to 100%; on FGFR3 (K650E), 27 to 100%; at Tek, 12 to 100%.
In the case of `CN(C(=O)Nc1cccc(C(F)(F)F)c1)c1cc(Nc2ccc(F)cc2)ncn1` [Example 121, 1-[6-(4-Fluoro-phenylamino)-pyrimidin-4-yl]-1-methyl-3-(3-trifluoro-methyl-phenyl)-urea], the values for the inhibition at 10 µM at KDR, on FGFR3 (K650E) and at Tek were 67 to 100%, 27 to 100% and 12 to 100%, respectively.
On the same counts, the results for `CN(C(=O)Nc1cccc(Cl)c1)c1cc(Nc2ccc(F)cc2)ncn1` [Example 122, 3-(3-Chloro-Phenyl)-1-[6-(4-fluoro-phenylamino)-pyrimidin-4-yl]-1-methyl-urea] are 67 to 100%, 27 to 100% and 12 to 100%.
Turning to `CN(C(=O)Nc1c(Cl)cccc1Cl)c1cc(Nc2ccc(F)cc2)ncn1` [Example 123, 3-(2,6-Dichloro-phenyl)-1-[6-(4-fluoro-phenylamino)-pyrimidin-4-yl]-1-methyl-urea], the inhibition at 10 µM on KDR lay in the range of 67 to 100%; at FGFR3 (K650E), 27 to 100%; at Tek, 12 to 100%.
For `CN(C(=O)Nc1c(Cl)cccc1Cl)c1cc(Nc2cccc(Cl)c2)ncn1` [Example 124, 1-[6-(3-Chloro-phenylamino)-pyrimidin-4-yl]-3-(2,6-dichloro-phenyl)-1-methyl-urea], in that order: 67 to 100%, 27 to 100% and 12 to 100%.
Turning to `O=C(Nc1cc(Nc2ccc(OCCCN3CCOCC3)cc2)ncn1)Nc1ccccc1Cl` [Example 125, 1-(2-Chloro-Phenyl)-3-{6-[4-(3-morpholin-4-yl-propoxy)-phenylamino]-pyrimidin-4-yl}-urea bis-hydrochloride Salt], the results for the inhibition at 10 µM at KDR, on FGFR3 (K650E) and at Tek were 67 to 100%, 27 to 100% and 12 to 100%, respectively.
Take `CCN(CC)CCOc1ccc(Nc2cc(NC(=O)Nc3ccccc3Cl)ncn2)cc1` [Example 126, 1-(2-Chloro-phenyl)-3-{6-[4-(2-diethylamino-ethoxy)-phenylamino]-pyrimidin-4-yl}-urea]: the inhibition at 10 µM on KDR lay within 67 to 100%; at FGFR3 (K650E), 27 to 100%; on Tek, 12 to 100%.
Regarding `Cc1cccc(C)c1NC(=O)N(C)c1cc(Nc2cccc(Cl)c2)ncn1` [Example 127, 1-[6-(3-Chloro-phenylamino)-pyrimidin-4-yl]-3-(2,6-dimethyl-phenyl)-1-methyl-urea], the inhibition at 10 µM at KDR lay within 67 to 100%; at FGFR3 (K650E), 27 to 100%; on Tek it was 12 to 100%.
With `O=C(Nc1cc(Nc2cccc(Cl)c2)ncn1)Nc1ccccc1Cl` [Example 128, 3-(2-Chloro-phenyl)-1-[6-(3-chloro-phenylamino)-pyrimidin-4-yl]-urea], the inhibition at 10 µM was in the range of 67 to 100% at KDR, 27 to 100% at FGFR3 (K650E) and 12 to 100% at Tek.
On the same counts, the results for `O=C(Nc1cc(Nc2cccc(Cl)c2)ncn1)Nc1ccccc1Br` [Example 129, 1-(2-Bromo-phenyl)-3-[6-(3-chloro-phenylamino)-pyrimidin-4-yl]-urea] are 67 to 100%, 27 to 100% and 12 to 100%.
In the case of `O=C(Nc1cc(Nc2cccc(Cl)c2)ncn1)Nc1ccccc1F` [Example 130, 1-[6-(3-Chloro-phenylamino)-pyrimidin-4-yl]-3-(2-fluoro-phenyl)-urea], the inhibition at 10 µM fell in the range of 67 to 100% at KDR, 27 to 100% at FGFR3 (K650E) and 12 to 100% on Tek.
As for `COc1cccc(NC(=O)Nc2cc(Nc3cccc(Cl)c3)ncn2)c1` [Example 131, 1-[6-(3-Chloro-phenylamino)-pyrimidin-4-yl]-3-(3-methoxy-Phenyl)-urea], the figures for the inhibition at 10 µM at KDR, at FGFR3 (K650E) and on Tek were 67 to 100%, 27 to 100% and 12 to 100%, respectively.
For the molecule `COc1ccc(OC)c(NC(=O)Nc2cc(Nc3cccc(Cl)c3)ncn2)c1` [Example 132, 1-[6-(3-Chloro-phenylamino)-pyrimidin-4-yl]-3-(2,5-dimethoxy-phenyl)-urea], the inhibition at 10 µM on KDR fell in the range of 67 to 100%; at FGFR3 (K650E), 27 to 100%; at Tek it was 12 to 100%.
Take `O=C(Nc1cc(Nc2cccc(Cl)c2)ncn1)Nc1ccccc1C(F)(F)F` [Example 133, 1-[6-(3-Chloro-phenylamino)-pyrimidin-4-yl]-3-(2-trifluoromethyl-phenyl)-urea]: the values for the inhibition at 10 µM at KDR, at FGFR3 (K650E) and at Tek were 67 to 100%, 27 to 100% and 12 to 100%, respectively.
For `COc1ccc(C)c(NC(=O)Nc2cc(Nc3cccc(Cl)c3)ncn2)c1` [Example 134, 1-[6-(3-Chloro-phenylamino)-pyrimidin-4-yl]-3-(5-methoxy-2-methyl-phenyl)-urea], in that order: 67 to 100%, 27 to 100% and 12 to 100%.
On to `O=C(Nc1cccc(Cl)c1)Nc1cc(Nc2cccc(Cl)c2)ncn1` [Example 135, 1-(3-Chloro-phenyl)-3-[6-(3-chloro-phenylamino)-pyrimidin-4-yl]-urea], for which the figures for the inhibition at 10 µM on KDR, at FGFR3 (K650E) and at Tek were 67 to 100%, 27 to 100% and 12 to 100%, respectively.
As to `COc1cc(NC(=O)Nc2cc(Nc3cccc(Cl)c3)ncn2)cc(OC)c1OC` [Example 136, 1-[6-(3-Chloro-phenylamino)-pyrimidin-4-yl]-3-(3,4,5-trimethoxy-phenyl)-urea], the inhibition at 10 µM on KDR fell in the range of 67 to 100%; on FGFR3 (K650E), 27 to 100%; at Tek, 12 to 100%.
For `O=C(Nc1cc(Nc2cccc(Cl)c2)ncn1)Nc1c(Cl)cccc1Cl` [Example 137, 1-[6-(3-Chloro-phenylamino)-pyrimidin-4-yl]-3-(2,6-dichloro-Phenyl)-urea], in that order: 67 to 100%, 27 to 100% and 12 to 100%.
For `O=C(Nc1ccc(Cl)cc1)Nc1cc(Nc2cccc(Cl)c2)ncn1` [Example 138, 1-(4-Chloro-phenyl)-3-[6-(3-chloro-phenylamino)-pyrimidin-4-yl]-urea], the inhibition at 10 µM was 67 to 100% at KDR, 27 to 100% at FGFR3 (K650E) and 12 to 100% at Tek.
As to `COc1cc(NC(=O)Nc2cc(Nc3cccc(Cl)c3)ncn2)cc(OC)c1` [Example 139, 1-[6-(3-Chloro-phenylamino)-pyrimidin-4-yl]-3-(3,5-dimethoxy-phenyl)-urea], the inhibition at 10 µM on KDR lay in the range of 67 to 100%; at FGFR3 (K650E), 27 to 100%; at Tek it was 12 to 100%.
Regarding `Cc1cccc(C)c1NC(=O)Nc1cc(Nc2cccc(Cl)c2)ncn1` [Example 140, 1-[6-(3-Chloro-phenylamino)-pyrimidin-4-yl]-3-(2,6-dimethyl-phenyl)-urea], the inhibition at 10 µM was in the range of 67 to 100% at KDR, 27 to 100% at FGFR3 (K650E) and 12 to 100% on Tek.
For `O=C(Nc1ccccc1)Nc1cc(Nc2cccc(Cl)c2)ncn1` [Example 141, 1-[6-(3-Chloro-phenylamino)-pyrimidin-4-yl]-3-phenyl-urea], in that order: 67 to 100%, 27 to 100% and 12 to 100%.
For the molecule `O=C(Nc1cc(Nc2ccc(OCCN3CCOCC3)cc2)ncn1)Nc1ccccc1Cl` [Example 142, 1-(2-Chloro-phenyl)-3-{6-[4-(2-morpholin-4-yl-ethoxy)-phenylamino]-pyrimidin-4-yl}-urea], the inhibition at 10 µM at KDR fell in the range of 67 to 100%; at FGFR3 (K650E), 27 to 100%; at Tek it was 12 to 100%.
`CCN(C(=O)Nc1c(Cl)c(OC)cc(OC)c1Cl)c1cc(Nc2ccc(N3CCN(C)CC3)cc2)ncn1` [Example 143, 3-(2,6-Dichloro-3,5-dimethoxy-phenyl)-1-ethyl-1-{6-[4-(4-methyl-piperazin-1-yl)-phenylamino]-pyrimidin-4-yl}-urea]: the inhibition at 10 µM on KDR lay in the range of 67 to 100%; on FGFR3 (K650E), 27 to 100%; on Tek it was 12 to 100%.
